Patent US10570152B2, “Antibacterial therapeutics and prophylactics” (VYOME BIOSCIENCES PVT. LTD., priority 2015, dated 2020)
Values after ≈ are worked out from the molar mass of the structure shown.

How the values were obtained:
Experiment in all cases: MIC by micro broth dilution
Type in all cases: cell-based
S. epidermidis S12-1 = details: for MIC: Staphylococcus epidermidis, S121, read-out: Minimum inhibitory concentration (MIC)
Protocol: (§1) MIC of DART molecules were determined by micro broth dilution as per CLSI guidelines. Bacterial strains were cultured in Brain Heart Infusion Agar (BHIA) at 37° C. for 24 h. For MIC determination, BHI broth (100 μl) was added to each of the wells of a 96 well plate. 100 μl of broth containing drug was added to the first well (1A to 1H) and thereafter serial (double) dilutions were carried out for up to 10 wells (column 1 to column 10 of the 96 well plate). Bacterial inoculum was prepared by adjusting the bacterial culture turbidity to 0.5 McFarland standard (approximately 1.5×10^8 cells/ml) and further diluted (100 times with sterile BHI broth). Diluted bacterial suspension (100 μl) was added to each well except sterility control wells (column 12 of 96 well plate). The plates were incubated at 37° C. for 24 h. The MIC of the test compound was measured after addition of Alamar blue dye.

S. aureus CCARM 3505 = details: for MIC: Staphylococcus aureus, CCARM3505, read-out: Minimum inhibitory concentration (MIC)
Protocol: as §1

E. coli BAA 196 = details: Escherichia coli, BAA196, read-out: Minimum inhibitory concentration (MIC)
Protocol: as §1

S. aureus ATCC 43300 = details: S. aureus ATCC 43300; for MIC: Staphylococcus aureus, ATCC43300, read-out: Minimum inhibitory concentration (MIC)
Protocol: as §1

[1] = system: S. epidermidis ATCC 35984; details: for MIC: Staphylococcus epidermidis, ATCC35984, read-out: Minimum inhibitory concentration (MIC)
Protocol: as §1

S. aureus MTCC 6908 = details: for MIC: Staphylococcus aureus, MTCC6908, read-out: Minimum inhibitory concentration (MIC)
Protocol: as §1

E. coli MTCC 1687 = details: Escherichia coli, MTCC1687, read-out: Minimum inhibitory concentration (MIC)
Protocol: as §1

E. faecium NCIM 5421 = details: for MIC: Enterococcus faecium, NCIM5421, read-out: Minimum inhibitory concentration (MIC)
Protocol: as §1

| MIC (S. epidermidis S12-1) [µg/mL] | MIC (S. aureus CCARM 3505) [µg/mL] | MIC (E. coli BAA 196) [µg/mL] | MIC (S. aureus ATCC 43300) [µg/mL] | MIC [1] [µg/mL] | MIC (S. aureus MTCC 6908) [µg/mL] | MIC (E. coli MTCC 1687) [µg/mL] | MIC (E. faecium NCIM 5421) [µg/mL] | SMILES | Minimum inhibitory concentration (MIC) (S. aureus ATCC 43300) | Minimum inhibitory concentration (MIC) (S. epidermidis S12-1) [µg/mL] | Minimum inhibitory concentration (MIC) (S. aureus CCARM 3505) [µg/mL] | Minimum inhibitory concentration (MIC) [1] [µg/mL] | Minimum inhibitory concentration (MIC) (S. aureus MTCC 6908) [µg/mL] | Minimum inhibitory concentration (MIC) (E. faecium NCIM 5421) [µg/mL] |
| --- | --- | --- | --- | --- | --- | --- | --- | --- | --- | --- | --- | --- | --- | --- |
| 8 (≈ 17 µM) | 8 (≈ 17 µM) | > 16 | 0.13 (≈ 0.276 µM) | 0.13 (≈ 0.276 µM) | 4 (≈ 8.5 µM) | > 16 | 1 (≈ 2.13 µM) | CC1Sc2c(C(=O)O)c(=O)c3cc(F)c(N4CCN(C(=O)c5cccc[n+]5[O-])CC4)cc3n21 (centres unmarked) [Compound 34, 2-(4-(3-Carboxy-6-fluoro-1-methyl-4-oxo-1H,4H-[1,3]thiazeto[3,2-a]quinolin-7-yl)piperazine-1-carbonyl)pyridine-1-oxide] | – | – | – | – | – | – |
| > 16 | > 16 | > 16 | 8 (≈ 17.8 µM) | > 16 | 8 (≈ 17.8 µM) | 0.25 (≈ 0.557 µM) | > 16 | CC1Sc2c(C(=O)O)c(=O)c3cc(F)c(N4CCN(C(=O)CNC(=N)N)CC4)cc3n21 (centres unmarked) [Compound 43, 7-(4-(Carbamimidoylglycyl)piperazin-1-yl)-6-fluoro-1-methyl-4-oxo-1H,4H-[1,3]thiazeto[3,2-a]quinoline-3-carboxylic acid] | – | – | – | – | – | – |
| > 16 | > 16 | – | 1 (≈ 2.38 µM) | 0.5 (≈ 1.19 µM) | 2 (≈ 4.76 µM) | – | > 16 | CCNC(=O)N1CCN(c2cc3c(cc2F)c(=O)c(C(=O)O)c2n3C(C)S2)CC1 (centres unmarked) [Compound 48, 7-(4-(Ethylcarbamoyl)piperazin-1-yl)-6-fluoro-1-methyl-4-oxo-1H,4H-[1,3]thiazeto[3,2-a]quinoline-3-carboxylic acid] | – | – | – | – | – | – |
| > 16 | > 16 | – | 16 (≈ 34.6 µM) | > 16 | 8 (≈ 17.3 µM) | – | > 16 | CC(=O)NC[C@H]1CN(c2ccc(N3CCN(C(=O)c4csc(N)n4)CC3)c(F)c2)C(=O)O1 [Compound 57, (S)—N-((3-(4-(4-(2-aminothiazole-4-carbonyl)piperazin-1-yl)-3-fluorophenyl)-2-oxooxazolidin-5-yl)methyl)acetamide] | – | – | – | – | – | – |
| > 16 | > 16 | – | > 16 | > 16 | > 16 | – | > 16 | CC(=O)NC[C@H]1CN(c2ccc(N3CCN(C(=O)c4csc(NC(=N)N)n4)CC3)c(F)c2)C(=O)O1 [Compound 58, (S)—N-((3-(3-fluoro-4-(4-(2-guanidinothiazole-4-carbonyl)piperazin-1-yl)phenyl)-2-oxooxazolidin-5-yl)methyl)acetamide] | – | – | – | – | – | – |
| > 16 | > 16 | – | > 16 | 16 (≈ 31.3 µM) | 16 (≈ 31.3 µM) | – | > 16 | CC(=O)NC[C@H]1CN(c2ccc(N3CCN(Cc4nc5ccc([N+](=O)[O-])cc5[nH]4)CC3)c(F)c2)C(=O)O1 [Compound 65, (S)—N-((3-(3-Fluoro-4-(4-((6-nitro-1H-benzo[d]imidazol-2-yl)methyl)piperazin-1-yl)phenyl)-2-oxooxazolidin-5-yl)methyl)acetamide] | – | – | – | – | – | – |
| > 16 | > 16 | – | – | 8 (≈ 14.9 µM) | 8 (≈ 14.9 µM) | – | > 16 | CC(=O)NC[C@H]1CN(c2ccc(N3CCN(Cc4nc5cc(Cl)c(Cl)cc5[nH]4)CC3)c(F)c2)C(=O)O1 [Compound 66, (S)—N-((3-(4-(4-((5,6-Dichloro-1H-benzo[d]imidazol-2-yl)methyl)piperazin-1-yl)-3-fluorophenyl)-2-oxooxazolidin-5-yl)methyl)acetamide] | 8/16 | – | – | – | – | – |
| > 16 | > 16 | – | > 64 | > 16 | 16 (≈ 30.5 µM) | – | > 16 | CC(=O)NC[C@H]1CN(c2ccc(N3CCN(CC(=O)Nc4ccc5nc(N)[nH]c5c4)CC3)c(F)c2)C(=O)O1 [Compound 68, (S)-2-(4-(4-(5-(acetamidomethyl)-2-oxooxazolidin-3-yl)-2-fluorophenyl)piperazin-1-yl)-N-(2-amino-1H-benzo[d]imidazol-6-yl)acetamide] | – | – | – | – | – | – |
| > 16 | > 16 | – | 16 (≈ 30.5 µM) | > 16 | 4 (≈ 7.63 µM) | – | > 16 | CC(=O)NC[C@H]1CN(c2ccc(N3CCN(C(=O)c4c[nH]c5ccc([N+](=O)[O-])cc45)CC3)c(F)c2)C(=O)O1 [Compound 75, (S)—N-((3-(3-fluoro-4-(4-(5-nitro-1H-indole-3-carbonyl)piperazin-1-yl)phenyl)-2-oxooxazolidin-5-yl)methyl)acetamide] | – | – | – | – | – | – |
| 4 (≈ 7.69 µM) | 8 (≈ 15.4 µM) | – | 8 (≈ 15.4 µM) | 2 (≈ 3.84 µM) | 4 (≈ 7.69 µM) | – | > 16 | CC(=O)NC[C@H]1CN(c2ccc(N3CCN(C(=O)c4cccc(Br)n4)CC3)c(F)c2)C(=O)O1 [Compound 76, (S)—N-((3-(4-(4-(6-Bromopicolinoyl)piperazin-1-yl)-3-fluorophenyl)-2-oxooxazolidin-5-yl)methyl)acetamide] | – | – | – | – | – | – |
| 4 (≈ 9.06 µM) | 8 (≈ 18.1 µM) | – | 8 (≈ 18.1 µM) | 4 (≈ 9.06 µM) | 4 (≈ 9.06 µM) | – | 0.5 (≈ 1.13 µM) | CC(=O)NC[C@H]1CN(c2ccc(N3CCN(C(=O)c4ccccn4)CC3)c(F)c2)C(=O)O1 [Compound 77, (S)—N-((3-(3-fluoro-4-(4-picolinoylpiperazin-1-yl)phenyl)-2-oxooxazolidin-5-yl)methyl)acetamide] | – | – | – | – | – | – |
| 8 (≈ 17.5 µM) | > 16 | – | 16 (≈ 35 µM) | 8 (≈ 17.5 µM) | 8 (≈ 17.5 µM) | – | > 16 | CC(=O)NC[C@H]1CN(c2ccc(N3CCN(C(=O)c4cccc[n+]4[O-])CC3)c(F)c2)C(=O)O1 [Compound 78, (S)-2-(4-(4-(5-(acetamidomethyl)-2-oxooxazolidin-3-yl)-2-fluorophenyl)piperazine-1-carbonyl)-pyridine 1-oxide] | – | – | – | – | – | – |
| > 16 | > 16 | – | 16 (≈ 31.2 µM) | > 16 | 16 (≈ 31.2 µM) | – | > 16 | CC(=O)NC[C@H]1CN(c2ccc(N3CCN(C(=O)CNC(=O)c4cccc[n+]4[O-])CC3)c(F)c2)C(=O)N1 [Compound 80, (S)-2-((2-(4-(4-(4-(Acetamidomethyl)-2-oxoimidazolidin-1-yl)-2-fluorophenyl)piperazin-1-yl)-2-oxoethyl)carbamoyl)pyridine 1-oxide] | – | – | – | – | – | – |
| 8 (≈ 19 µM) | > 16 | – | > 16 | 16 (≈ 38 µM) | > 16 | – | > 16 | CC(=O)NC[C@H]1CN(c2ccc(N3CCN(C(=O)NC(=N)N)CC3)c(F)c2)C(=O)O1 [Compound 84, (S)-4-(4-(5-(Acetamidomethyl)-2-oxooxazolidin-3-yl)-2-fluorophenyl)-N-carbamimidoylpiperazine-1-carboxamide] | – | – | – | – | – | – |
| – | – | – | – | – | – | – | – | CCCCCCCCCCC[CH2][SnH2][CH2][C@@H](NC(C)=O)C(=O)N1CCN(c2ccc(N3CC(CNC(C)=O)OC3=O)cc2F)CC1 (stereo partly drawn) [Compound 108, (S)—N-[2-(4-{4-[5-(Acetylamino-methyl)-2-oxo-oxazolidin-3-yl]-2-fluoro-phenyl}-piperazin-1-yl)-1-dodecylstannanylmethyl-2-oxo-ethyl]-acetamide] | >16 µg/mL | >16 | >16 | >16 | >16 | >16 |
| > 16 | > 16 | – | > 16 | > 16 | > 16 | – | > 16 | CC(=O)NC[C@H]1CN(c2ccc(N3CCN(C(=O)c4coc(N)n4)CC3)c(F)c2)C(=O)O1 [Compound 110, (S)—N-(3-{4-[4-(2-amino-oxazole-4-carbonyl)-piperazin-1-yl]-3-fluoro-phenyl}-2-oxo-oxazolidin-5-ylmethyl)-acetamide] | – | – | – | – | – | – |
| > 16 | > 16 | – | 16 (≈ 30.3 µM) | > 16 | > 16 | – | > 16 | CC1Sc2c(C(=O)O)c(=O)c3cc(F)c(N4CCN(C(=O)CNC(=O)c5cccc[n+]5[O-])CC4)cc3n21 (centres unmarked) [Compound 111, 2-((2-(4-(3-carboxy-6-fluoro-1-methyl-4-oxo-1H,4H-[1,3]thiazeto[3,2-a]quinolin-7-yl)piperazin-1-yl)-2-oxoethyl)carbamoyl)pyridine 1-oxide] | – | – | – | – | – | – |
| 8 (≈ 15.2 µM) | > 16 | – | 0.13 (≈ 0.247 µM) | 0.13 (≈ 0.247 µM) | 0.25 (≈ 0.476 µM) | 1 (≈ 1.9 µM) | > 16 | CC1Sc2c(C(=O)O)c(=O)c3cc(F)c(N4CCN(CC(=O)NC(=O)Nc5ccccc5)CC4)cc3n21 (centres unmarked) [Compound 112, 6-Fluoro-1-methyl-4-oxo-7-(4-(2-oxo-2-(3-phenylureido)ethyl)piperazin-1-yl)-1H,4H-[1,3]thiazeto-[3,2-a]quinoline-3-carboxylic acid] | – | – | – | – | – | – |
